Results published in ChEMBL document CHEMBL1137099, “Synthesis of novel rhinacanthins and related anticancer naphthoquinone esters” (J Med Chem, 2004).

What was measured:
Type in all cases: functional, cell-based
Vero = assay: Concentration required to inhibit growth of african green monkey kidney cell line; conditions: Chlorocebus sabaeus
HeLa = assay: Concentration required to inhibit growth of human cervical carcinoma (HeLa) cell line
KB [1] = assay: Concentration required to inhibit growth of human epidermoid carcinoma (KB) cell line
HepG2 = assay: Concentration required to inhibit growth of human hepatocellular carcinoma (HepG2) cell line
KB [2] = assay: Concentration required to inhibit growth of human epidermoid carcinoma (KB) cell line; IA= Inactive

| Structure (SMILES) | IC50 (Vero) [µM] | IC50 (HeLa) [µM] | IC50 (KB [1]) [µM] | IC50 (HepG2) [µM] | IC50 (KB [2]) |
| --- | --- | --- | --- | --- | --- |
| COc1cc(C(=O)OCC(C)CC2=C(O)C(=O)c3ccccc3C2=O)c(O)c2ccccc12 (centres undefined) | < 0.22 | 2.83 | 2.16 | 3.14 |  |
| COc1cc(C(=O)OCC(C)(C)CC2=C(O)C(=O)c3ccccc3C2=O)c(OC)c2ccccc12 | 32.7 | 1.09 | 0.35 | 0.97 |  |
| CC(C)(COC(=O)c1ccccc1O)CC1=C(O)C(=O)c2ccccc2C1=O | > 136 | 4.34 | 4.65 | 5.44 |  |
| COc1ccc(OC)c(C(=O)OCC(C)CC2=C(O)C(=O)c3ccccc3C2=O)c1 (centres undefined) | 4.05 | 41.9 | 37.6 | 53.1 |  |
| COC1C=C(C(=O)O)C(OC)c2ccccc21 (centres undefined) |  |  |  |  | Not Active |
| COc1cc(C(=O)OCC(C)CC2=C(O)C(=O)c3ccccc3C2=O)c(OC)c2ccccc12 (centres undefined) | 5.91 | 3.8 | 3.52 | 3.65 |  |
| CC(C)(COC(=O)c1ccc2ccccc2c1O)CC1=CC(=O)c2ccccc2C1=O | 90.8 | 45.9 | 38.2 | 48.3 |  |
| CC(COC(=O)c1ccc2ccccc2c1)CC1=CC(=O)c2ccccc2C1=O (centres undefined) | 43.4 | 38.2 | 29 | 27.3 |  |
| COC1=C(CC(C)(C)COC(=O)c2cc(OC)ccc2OC)C(=O)c2ccccc2C1=O | 13.4 | 38.8 | 14.9 | 40.7 |  |
| O=C(O)C1=CCc2ccccc2C1O (centres undefined) |  |  |  |  | Not Active |
| CC(C)(COC(=O)c1ccc2ccccc2c1)CC1=C(O)C(=O)c2ccccc2C1=O | 1.5 | 1.17 | 1.59 | 1.3 |  |
| O=C1C(=O)c2ccccc2C(O)=C1CCCOC(=O)c1ccc2ccccc2c1 | 24 | 15.8 | 14.4 | 15.5 |  |
| COc1cc(C(=O)OCCCC2=CC(=O)c3ccccc3C2=O)c(O)c2ccccc12 | 48.5 | 45.4 | 93.8 | 64.4 |  |
| CC(COC(=O)c1ccc2ccccc2c1)CC1=C(O)C(=O)c2ccccc2C1=O (centres undefined) | 1.8 | 4.25 | 3.58 | 3.7 |  |
| CC(COC(=O)c1ccccc1)CC1=C(O)C(=O)c2ccccc2C1=O (centres undefined) | 2.31 | 4.76 | 4.57 | 8.43 |  |
| COc1ccc(O)c(C(=O)OCC(C)(C)CC2=C(O)C(=O)c3ccccc3C2=O)c1 | 11.5 | 3.33 | 1.18 | 1.61 |  |
| O=C1C(=O)c2ccccc2C(O)=C1CCCOC(=O)c1ccc2ccccc2c1O | 124 | 15.1 | 12.3 | 16.2 |  |
| CC(C)(COC(=O)c1cc(O)c2ccccc2c1O)CC1=C(O)C(=O)c2ccccc2C1=O | 15.4 | 12.4 | 4.22 | 12.9 |  |
| COc1c(C(=O)OCC(C)CC2=CC(=O)c3ccccc3C2=O)ccc2ccccc12 (centres undefined) | 20.2 | 39.5 | 26.4 | 39.5 |  |
| CC(C)(COC(=O)c1ccccc1)CC1=C(O)C(=O)c2ccccc2C1=O | 48.6 | 3.02 | 1.53 | 4.85 |  |
| COc1c(C(=O)OCC(C)CC2=C(O)C(=O)c3ccccc3C2=O)ccc2ccccc12 (centres undefined) | 0.97 | 0.38 | 0.66 | 1.04 |  |
| COc1cc(C(=O)OCCCC2=C(O)C(=O)c3ccccc3C2=O)c(OC)c2ccccc12 | 75.4 | 32.3 | 12.8 | 35.9 |  |
| CC(COC(=O)c1ccc2ccccc2c1O)CC1=CC(=O)c2ccccc2C1=O (centres undefined) | 37.9 | 46.2 | 38.6 | 42.1 |  |
| CC(COC(=O)c1ccc2ccccc2c1O)CC1=C(O)C(=O)c2ccccc2C1=O (centres undefined) | 0.7 | 3.97 | 1.06 | 1 |  |
| COc1c(C(=O)OCCCC2=CC(=O)c3ccccc3C2=O)ccc2ccccc12 | 40 | 47.5 | 50 | 54.2 |  |

| Structure (SMILES) | IC50 (Vero) [µM] | IC50 (HeLa) [µM] | IC50 (KB [1]) [µM] | IC50 (HepG2) [µM] | IC50 (KB [2]) |
| --- | --- | --- | --- | --- | --- |
| COc1cc(C(=O)OCC(C)(C)CC2=C(O)C(=O)c3ccccc3C2=O)c(O)c2ccccc12 | 12.7 | 0.3 | < 0.22 | 0.38 |  |
| CC(C)(COC(=O)c1cc(O)ccc1O)CC1=C(O)C(=O)c2ccccc2C1=O | 77 | 45.5 | 64.4 | 47.6 |  |
| COc1ccc(O)c(C(=O)OCC(C)CC2=C(O)C(=O)c3ccccc3C2=O)c1 (centres undefined) | 14 | 4.55 | 4.04 | 4.96 |  |
| CC(C)(COC(=O)c1ccc2ccccc2c1)CC1=CC(=O)c2ccccc2C1=O | 33.3 | 41.2 | 32 | 45.2 |  |
| CC(COC(=O)c1ccccc1O)CC1=C(O)C(=O)c2ccccc2C1=O (centres undefined) | 75.9 | 10.3 | 4.65 | 11.6 |  |
| COC1=C(CC(C)(C)COC(=O)c2ccc3ccccc3c2)C(=O)c2ccccc2C1=O | 47.9 | 44.9 | 91.5 | 127 |  |
| COc1cc(C(=O)OCCCC2=C(O)C(=O)c3ccccc3C2=O)c(O)c2ccccc12 | 40.9 | 4.24 | 4.09 | 4.28 |  |
| CC(C)(CO)CC1=C(O)C(=O)c2ccccc2C1=O |  |  | 11.2 |  |  |
| O=C(OCCCC1=CC(=O)c2ccccc2C1=O)c1ccc2ccccc2c1 | 14.9 | 12.9 | 13.7 | 10.2 |  |
| COC1=C(CC(C)(C)COC(=O)c2ccc3ccccc3c2OC)C(=O)c2ccccc2C1=O | 5.96 | 9.47 | 10.1 | 11.5 |  |
| COc1ccccc1C(=O)OCC(C)CC1=C(O)C(=O)c2ccccc2C1=O (centres undefined) | 29.8 | 4.12 | 1.64 | 4.04 |  |
| CC(C)(COC(=O)c1ccc2ccccc2c1O)CC1=C(O)C(=O)c2ccccc2C1=O | 1 | < 0.23 | < 0.23 | 0.32 |  |
| COc1c(C(=O)OCCCC2=C(O)C(=O)c3ccccc3C2=O)ccc2ccccc12 | 120 | 42.9 | 33.7 | 45.7 |  |
| CC(CO)CC1=C(O)C(=O)c2ccccc2C1=O (centres undefined) |  |  | 59.4 |  |  |
| COc1c(C(=O)OCC(C)(C)CC2=CC(=O)c3ccccc3C2=O)ccc2ccccc12 | 30.4 | 36.9 | 12.5 | 14.4 |  |
| COC1C(C(=O)O)=CCc2ccccc21 (centres undefined) |  |  |  |  | Not Active |
| O=C(O)C1=CCc2ccccc2C1 |  |  |  |  | Not Active |
| O=C1C(O)=C(CCCO)C(=O)c2ccccc21 |  |  |  |  | Not Active |
| COC1=C(CC(C)(C)COC(=O)c2ccccc2)C(=O)c2ccccc2C1=O | 34.8 | 40.6 | 43 | 46.7 |  |
| O=C1C=C(CCCOC(=O)c2ccc3ccccc3c2O)C(=O)c2ccccc21 | > 259 | > 259 | > 259 | > 259 |  |
| COc1c(C(=O)OCC(C)(C)CC2=C(O)C(=O)c3ccccc3C2=O)ccc2ccccc12 | 17.6 | 0.23 | < 0.22 | 0.24 |  |
| COc1ccc(OC)c(C(=O)OCC(C)(C)CC2=C(O)C(=O)c3ccccc3C2=O)c1 | 9.11 | 3.42 | 3.38 | 3.54 |  |
| COc1ccccc1C(=O)OCC(C)(C)CC1=C(O)C(=O)c2ccccc2C1=O | 8.98 | 4.04 | 1.86 | 4.72 |  |
| COc1cc(C(=O)OCCCC2=CC(=O)c3ccccc3C2=O)c(OC)c2ccccc12 | > 233 | > 233 | > 233 | > 233 |  |
| COc1cccc2c1C(=O)c1c(O)c3c(c(O)c1C2=O)C[C@@](O)(C(=O)CO)C[C@@H]3O[C@H]1C[C@H](N)[C@H](O)[C@H](C)O1 [DOXORUBICIN] | 23.9 | 0.33 | 0.03 | 0.4 |  |
